Results: publication PMC7343802, “The development of the dog heartworm is highly sensitive to sterols which activate the orthologue of the nuclear receptor DAF-12” (Scientific Reports, 2020)
pEC50: −log10 of the molar value.

Legend:
D. immitis iL3 larvae = test: in vitro molting of infective third-stage larvae (iL3) into L4; type: cell-based, Dirofilaria immitis
CelDAF-12 = CelDAF-12 (Caenorhabditis elegans, UniProt G5EFF5); test: cell-based
CelDAF-12, sequence (G5EFF5 516-753): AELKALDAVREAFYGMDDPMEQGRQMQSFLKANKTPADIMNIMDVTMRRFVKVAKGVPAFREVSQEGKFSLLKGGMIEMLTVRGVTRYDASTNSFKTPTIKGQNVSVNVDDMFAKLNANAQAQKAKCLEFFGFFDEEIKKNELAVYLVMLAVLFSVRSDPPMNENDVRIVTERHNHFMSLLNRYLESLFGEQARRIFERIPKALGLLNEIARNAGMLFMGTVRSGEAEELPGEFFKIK

CC(CCCC(C)C1CCC2C3=CCC4CC(=O)CCC4(C)C3CCC21C)C(=O)O [Δ7-DA, (25S)-Δ7-dafachronic acid]
number of free cuticles (completed molt, L4) versus DMSO control (D. immitis iL3 larvae): significantly higher | start of the molting process (day in culture) (D. immitis iL3 larvae): 3 to 4 days | overall effect on molting of iL3 into L4 (D. immitis iL3 larvae; 10 µM): induced a rapid development of iL3 into L4 | percentage of iL3 which had initiated but not completed the molt, compared to DMSO control (D. immitis iL3 larvae; 10 µM, day 5 or 6): low percentage | pEC50 (CelDAF-12): 7.80
